Legend:
Assay type in all cases: cell-based
HCoV-229E [1] = assay: Quencher assay (singlet oxygen quenchers); conditions: quencher 10 mM, Pba 0.5 or 1 μM
Huh-7 cells = assay: MTS cell toxicity assay, Huh-7 cells; conditions: Huh-7 cells, 24 h, light exposure
Procedure: A total of 6 × 10^4 Huh-7, Vero-E6, and Vero-81 cells were seeded in 96-well plates and incubated for 16 h at 37°C in a 5% CO2 incubator. The cells were then treated with increasing concentrations of the compound of interest. One hour after inoculation, cells were taken out of the incubator to be exposed to the white light of a biosafety cabinet (BSC) for 10 min, after which cells were further incubated in the dark at 37°C and 5% CO2 for 23 h. The BSC’s light source lamp consists of one fluorescent tube of 36 W, 3,350 lumen, white light. An MTS [3-(4,5-dimethylthiazol-2-yl)-5-(3-carboxymethoxyphenyl)-2-(4-sulfophenyl)-2H-tetrazolium]-based viability assay (Cell Titer 96 aqueous nonradioactive cell proliferation assay; Promega) was performed as recommended by the manufacturer. The absorbance of formazan at 490 nm was detected using a plate reader (ELX 808 Bio-Tek Instruments Inc.). Each measure was performed in triplicate, and each experiment was repeated at least 3 times.
6×104 Huh-7, Vero-E6 and Vero-81 cells were seeded in 96-well plates and incubated for 16 h at 37 °C 5% CO2 incubator. The cells were then treated with increasing concentrations of the compound of interest. One hour after inoculation, cells were either left in the incubator (dark condition) or taken out to be exposed to the white light of the biosafety cabinet (BSC) for 10 min (light condition), after which cells were further incubated in the dark at 37 °C 5% CO2 for 23 h. BSC’s light source lamp consists of one fluorescent tube of 36W, 3350 lumen white light. An MTS [3-(4,5-dimethylthiazol-2-yl)-5-(3-carboxymethoxyphenyl)-2-(4-sulfophenyl)- 2H-tetrazolium]-based viability assay (Cell Titer 96 Aqueous non-radioactive cell proliferation assay, Promega) was performed as recommended by the manufacturer. The absorbance of formazan at 490 nm was detected using a plate reader (ELX 808 Bio-Tek […]
Instruments Inc). […]

HCoV-229E [2] = assay: HCoV-229E-Luc infection inhibition luciferase assay; conditions: for light dependence of antiviral effect: HCoV-229E, light versus dark; for IC50: against HCoV-229E, normal white light exposure, read-out: IC50; for antiviral activity against HCoV-229E-Luc, screening of related compounds: Huh-7 cells, 1, 5, 10 µM, light exposure
SARS-CoV-2 = system: SARS-CoV-2

Compound	CC50 (Huh-7 cells) [µM]	light dependence of antiviral effect (HCoV-229E [2])	IC50 (HCoV-229E [2]; Huh-7 cells) [nM]	antiviral activity against HCoV-229E-Luc, screening of related compounds (HCoV-229E [2])	also measured
Cc1c(C)c2c(c(C)c1O)CCC(C)(C(=O)O)O2 (stereo not drawn) [Trolox]					effect of quencher on antiviral action of Pba (HCoV-229E [1]): able to reduce the action of Pba
C=CC1=C(C)c2cc3[n-]c(cc4[n-]c(cc5nc(cc1n2)C(C)=C5C=C)c(C)c4CCC(=O)O)c(CCC(=O)O)c3C.[Zn+2] [Zn protoporphyrin IX, Zn-protoporphyrin IX]	16.6	light-dependent antiviral effect	790		
CCN(CC)CCCC(C)Nc1ccnc2cc(Cl)ccc12 (stereo not drawn) [chloroquine, reference compound]					infectivity relative to normal levels, compound added more than 2 h after inoculation (SARS-CoV-2): around 60%
c1ccc2c(c1)-c1nc-2nc2[nH]c(nc3nc(nc4[nH]c(n1)c1ccccc41)-c1ccccc1-3)c1ccccc21 [phthalocyanine]				not active at the tested concentrations	
Oc1cccc(-c2c3nc(c(-c4cccc(O)c4)c4ccc([nH]4)c(-c4cccc(O)c4)c4nc(c(-c5cccc(O)c5)c5ccc2[nH]5)CC4)C=C3)c1 [temoporfin]				moderate antiviral activity	
HPPH	8.13	light-dependent antiviral effect	1140		
N-methyl protoporphyrin IX	> 80	light-dependent antiviral effect	1210		antiviral activity under dark conditions (HCoV-229E [2]; Huh-7 cells, dark): showed antiviral activity under dark conditions
hemin chloride				moderate antiviral activity	

— PMC8846325, “A Photoactivable Natural Product with Broad Antiviral Activity against Enveloped Viruses, Including Highly Pathogenic Coronaviruses” (Antimicrobial Agents and Chemotherapy, 2022)
